Experimental data from patent US20200239938A1 (priority 2017, published 2020).

Tests used:
Assay type in all cases: cell-based
[1] = test system: Campylobacter jejuni DSM-24306; assay: drop plate enumeration of viable cells on Columbia Blood Agar; parameters: key: +++: bacterial lawn; ++: few colonies; +: single colonies; −: no growth observable
[2] = test system: Campylobacter jejuni DSM-24306; assay: as above; parameters: key to drop plate growth: +++: bacterial lawn; ++: few colonies; +: single colonies; −: no growth observable; conditions: for viable cells at the start of cultivation: 0 h
Source text: (§1) The pathogens of interest Salmonella enterica subsp. enterica and Campylobacter jejuni were cultivated in microtiter plate scale in order to enable the simultaneous application of four different starting culture concentrations and treatments (Table 3). For analysis, samples for DNA extraction were taken after different times of cultivation and applied for qPCR enumeration of Salmonella enterica subsp. enterica and Campylobacter jejuni specific genes. As the qPCR assay is designed to record both viable and non-viable cells, an additional viability check was performed for AB treated cultures and the untreated controls.
(§2) In order to evaluate the effect of bactericidic effect Kanamycin, drop plate tests were performed to determine the number of viable cells. Three dilutions of a ten-fold series of the high (dilutions 10^−3, 10^−4 and 10^−5) and low (dilutions 10′, 10^−2 and 10^−3) inoculated culture after 0 and 6 h were plated in triplicates on CBA (Campylobacter) or tryptic soy agar (TSA) (Salmonella) by dropping 10 μl on the agar. The plates were evaluated regarding growth at the distinct log dilutions after 24 h incubation (41° C. microaerophilic for Campylobacter, 37° C. aerobic for Salmonella).

[3] = test system: Salmonella enterica subsp. enterica DSM-5569; assay: drop plate enumeration of viable cells on tryptic soy agar; parameters: key to drop plate growth: +++: bacterial lawn; ++: few colonies; +: single colonies; −: no growth observable; conditions: for viable cells at the start of cultivation: 0 h
Source text: as §1, §2

[4] = test system: Campylobacter jejuni DSM-24306; assay: microtiter plate cultivation assay with qPCR enumeration of the Cj0414 target gene (growth curves, growth rate); conditions: Butyrate 25 mM; for growth rate: cultivation period of 0 to 7 h, very high to low inoculum, GutCare 10% (v/v)
Source text: as §1
For Campylobacter jejuni experiments the DSMZ strain DSM-24306 was applied. The inoculum culture was produced by a first overnight cultivation on Columbia Blood Agar (CBA) followed by an overnight cultivation in Mueller-Hinton broth (MH). All cultivations took place under microaerophilic conditions (5% O2, 10% CO2, and […]) at 41° C.
The actual assay was carried out in microtiter plate format containing a total volume of 200 μl. Following media for the different treatment conditions were prepared according to Table 4. For the probiotic treatments (Ecobiol and GutCare), sterile filtrated supernatant of an overnight culture (=cell-free) or non-sterile filtrated, cell-containing supernatant of the same overnight culture was applied.
For C. jejuni all treatments were prepared in MH medium and for S. enterica in LBG respectively. Strains were cultivated under the conditions described in 2.1. Inoculated medium without any treatment served as an untreated control.
For each intervention and for the untreated control, following inoculum concentrations given in starting quantity of the Salmonella enterica subsp. enterica and Campylobacter jejuni specific target gene per ml culture were applied for the start of the assay:
From each concentration and treatment, enough wells were prepared to extract DNA from three well replicates per time point and treatment. For Campylobacter, DNA was extracted after 0, 7, 24 and 48 h. For Salmonella, 0, 2, 4, 6, 24 and 30 h of cultivation were chosen. […]
(§3) For enumeration of Salmonella or Campylobacter, primers and probes binding in conserved genetic regions, specific for each species were applied in qPCR assays with a total volume of 30 μl and a DNA eluate volume of 10 μl. […] Absolute quantification of targets was performed under consolidation of standard curves that were carried with each run. Using the standard curves, the starting quantity (SQ) of the specific target was calculated for each sample. […]
To outline the effect of each treatment, the difference of growth rates between untreated and treated cultures was calculated for each starting inoculum concentration as following: […]

[5] = test system: Salmonella enterica subsp. enterica DSM-5569; assay: drop plate enumeration of viable cells on tryptic soy agar; parameters: key: +++: bacterial lawn; ++: few colonies; +: single colonies; −: no growth observable
[6] = test system: Salmonella enterica subsp. enterica DSM-5569; assay: microtiter plate cultivation assay with qPCR enumeration of the hilA target gene (growth curves, growth rate)
Source text: as §1, with “controls. […]” for “controls.”
For each intervention and for the untreated control, following inoculum concentrations given in starting quantity of the Salmonella enterica subsp. enterica and Campylobacter jejuni specific target gene per ml culture were applied for the start of the assay: […]
as §3

[7] = High concentrated, After 0 h, dilution 10^−6
[8] = High concentrated, After 0 h, dilution 10^−7
[9] = High concentrated, After 6 h, dilution 10^−6
[10] = High concentrated, After 6 h, dilution 10^−7
[11] = Low concentrated, After 0 h, dilution 10^−4
[12] = Low concentrated, After 0 h, dilution 10^−5
[13] = Low concentrated, After 6 h, dilution 10^−4
[14] = Low concentrated, After 6 h, dilution 10^−5
[15] = High concentrated, After 0 h, dilution 10^−5
[16] = High concentrated, After 6 h, dilution 10^−5
[17] = Low concentrated, After 0 h, dilution 10^−3
[18] = Low concentrated, After 6 h, dilution 10^−3

## NC[C@H]1O[C@H](O[C@H]2[C@H](O)[C@@H](O[C@H]3O[C@H](CO)[C@@H](O)[C@H](N)[C@H]3O)[C@H](N)C[C@@H]2N)[C@H](O)[C@@H](O)[C@@H]1O [Kanamycin]
[1]; [7]
  drop plate growth: +
[1]; [8]
  drop plate growth: −
[1]; [9]
  drop plate growth: −
[1]; [10]
  drop plate growth: −
[1]; [11]
  drop plate growth: ++
[1]; [12]
  drop plate growth: +
[1]; [13]
  drop plate growth: −
[1]; [14]
  drop plate growth: −
[2]; [15]
  drop plate growth: ++
[2]; [16]
  drop plate growth: −
[2]; [17]
  drop plate growth: ++
[2]; [18]
  drop plate growth: −
[2]; high concentrated inoculum
  viable cells at the start of cultivation: 6-7 log
[2]; low concentrated inoculum
  viable cells at the start of cultivation: 5 log
[3]; [15]
  drop plate growth: +++
[3]; [16]
  drop plate growth: −
[3]; [17]
  drop plate growth: +++
[3]; [18]
  drop plate growth: −
[3]; high concentrated inoculum
  viable cells at the start of cultivation: 6-7 log
[3]; low concentrated inoculum
  viable cells at the start of cultivation: 5 log
[4]; Kanamycin 50 μl/ml
  growth rate: ~0.13
[5]; [7]
  drop plate growth: ++
[5]; [8]
  drop plate growth: +
[5]; [9]
  drop plate growth: −
[5]; [10]
  drop plate growth: −
[5]; [11]
  drop plate growth: ++
[5]; [12]
  drop plate growth: +
[5]; [13]
  drop plate growth: −
[5]; [14]
  drop plate growth: −

## CCCC(=O)[O-].[Na+] [sodium butyrate, Sodium butyrate]
[4]; all inoculum concentrations, MH medium, 41° C. microaerophilic, GutCare (cell-free) 10% (v/v), Kanamycin 50 μl/ml, 0-48 h
  growth curve (target starting quantity (SQ) per ml culture, qPCR): inhibitory effect
[4]; compared with untreated control
  plateau SQ: significantly lower plateau SQ
[4]; Kanamycin 50 μl/ml
  growth rate: around 0.24
[6]; 0 to 7 h, in relation to inoculum concentration (very high to low)
  difference of the growth rates (delta) from untreated control: effect is rather low for all concentrations
[6]; all inoculum concentrations, LBG, 37° C. aerobic, Butyrate 25 mM, Ecobiol 10% (v/v), 0-30 h
  growth curve (target starting quantity (SQ) per ml culture, qPCR): strong exponential growth during the first 7 h
